# ChEMBL document CHEMBL5042487, “Design, synthesis, and biological activity evaluation of 2-(benzo[b]thiophen-2-yl)-4-phenyl-4,5-dihydrooxazole derivatives as broad-spectrum antifungal agents” (Eur J Med Chem, 2022)
# Experiments:
# Type in all cases: functional
# Candida albicans [1] = assay: Antifungal activity against Candida albicans SC5314 assessed as inhibition of fungal growth by NCCLS protocol based method
# Candida albicans [2] = assay: Antifungal activity against Candida albicans GIM 2.194 assessed as inhibition of fungal growth by NCCLS protocol based method
# Candida tropicalis = assay: Antifungal activity against Candida tropicalis GIM 2.183 assessed as inhibition of fungal growth by NCCLS protocol based method
# Cryptococcus neoformans = assay: Antifungal activity against Cryptococcus neoformans GIM 2.209 assessed as inhibition of fungal growth by NCCLS protocol based method
# Aspergillus fumigatus = assay: Antifungal activity against Aspergillus fumigatus CGMCC 3.7795 assessed as inhibition of fungal growth by NCCLS protocol based method
# Candida albicans [3] = assay: Antifungal activity against fluconazole resistant Candida albicans CaR assessed as inhibition of fungal growth by NCCLS protocol based method
# Candida albicans [4] = assay: Antifungal activity against fluconazole and itraconazole resistant Candida albicans 17# assessed as inhibition of fungal growth by NCCLS protocol based method
MIC (Candida albicans [1]) [µg/mL],MIC (Candida albicans [2]) [µg/mL],MIC (Candida tropicalis) [µg/mL],MIC (Cryptococcus neoformans) [µg/mL],MIC (Aspergillus fumigatus) [µg/mL],SMILES,MIC (Candida albicans [3]) [µg/mL],MIC (Candida albicans [4]) [µg/mL]
0.5,> 16,> 16,> 64,32,Clc1ccc2sc(C3=NC(Cn4cncn4)(c4ccccc4)CO3)cc2c1 (stereo not drawn),,
> 16,> 16,> 16,> 64,> 64,Brc1ccc2sc(C3=NC(Cn4cncn4)(c4ccccc4)CO3)cc2c1 (stereo not drawn),,
0.25,1,4,4,2,Fc1ccc2cc(C3=NC(Cn4cncn4)(c4ccccc4)CO3)sc2c1 (stereo not drawn),,
1,> 16,> 16,16,1,Fc1ccc2sc(C3=NC(Cn4cncn4)(c4ccccc4)CO3)cc2c1 (stereo not drawn),,
> 16,> 16,> 16,> 64,> 64,N#Cc1ccc2cc(C3=NC(Cn4cncn4)(c4ccccc4)CO3)sc2c1 (stereo not drawn),,
0.25,> 16,8,16,> 64,FC(F)(F)c1ccc2cc(C3=NC(Cn4cncn4)(c4ccccc4)CO3)sc2c1 (stereo not drawn),,
0.06,< 0.03,0.06,0.25,> 64,Fc1ccc(C2(Cn3cncn3)COC(c3cc4ccc(Cl)cc4s3)=N2)c(F)c1 (stereo not drawn),,
0.06,0.06,0.125,0.5,16,Clc1cccc(C2(Cn3cncn3)COC(c3cc4ccc(Br)cc4s3)=N2)c1 (stereo not drawn),,
0.06,0.06,0.125,0.25,> 64,Fc1cc(F)cc(C2(Cn3cncn3)COC(c3cc4ccc(Cl)cc4s3)=N2)c1 (stereo not drawn),,
< 0.03,0.06,0.06,0.25,0.5,Brc1ccc2cc(C3=NC(Cn4cncn4)(c4ccccc4)CO3)sc2c1 (stereo not drawn),,
< 0.03,0.06,0.06,0.25,0.5,Clc1ccc2cc(C3=NC(Cn4cncn4)(c4ccccc4)CO3)sc2c1 (stereo not drawn),,
0.06,0.06,0.125,0.5,16,Clc1cccc(C2(Cn3cncn3)COC(c3cc4ccc(Cl)cc4s3)=N2)c1 (stereo not drawn),,

# More lines, now with the values behind:
SMILES,MIC (Candida albicans [1]) [µg/mL],MIC (Candida albicans [2]) [µg/mL],MIC (Candida tropicalis) [µg/mL],MIC (Cryptococcus neoformans) [µg/mL],MIC (Aspergillus fumigatus) [µg/mL],MIC (Candida albicans [3]) [µg/mL],MIC (Candida albicans [4]) [µg/mL]
Fc1ccc(C2(Cn3cncn3)COC(c3ccc(-c4ccccc4F)cc3)=N2)cc1 (stereo not drawn),< 0.03,< 0.03,0.06,> 64,> 64,,
FC(F)(F)Oc1ccc2cc(C3=NC(Cn4cncn4)(c4ccccc4)CO3)sc2c1 (stereo not drawn),0.06,> 16,> 16,> 64,> 64,,
N#Cc1ccc2sc(C3=NC(Cn4cncn4)(c4ccccc4)CO3)cc2c1 (stereo not drawn),> 16,> 16,> 16,> 64,> 64,,
Fc1ccc(C2(Cn3cncn3)COC(c3cc4ccc(Br)cc4s3)=N2)c(F)c1 (stereo not drawn),< 0.03,< 0.03,< 0.03,0.5,> 64,,
c1ccc(COc2ccc(C3=NC(Cn4cncn4)(c4ccccc4)CO3)cc2)cc1 (stereo not drawn),> 16,> 16,> 64,> 64,> 64,,
Fc1ccc(C2(Cn3cncn3)COC(c3cc4ccc(Br)cc4s3)=N2)cc1 (stereo not drawn),< 0.03,0.06,0.13,1,2,0.5,> 64
c1ccc(C2(Cn3cncn3)COC(c3cc4ccccc4o3)=N2)cc1 (stereo not drawn),> 16,> 16,> 64,2,8,,
FC(F)(F)Oc1ccc2sc(C3=NC(Cn4cncn4)(c4ccccc4)CO3)cc2c1 (stereo not drawn),< 0.03,0.06,0.25,> 64,> 64,,
Fc1cc(F)cc(C2(Cn3cncn3)COC(c3cc4ccc(Br)cc4s3)=N2)c1 (stereo not drawn),0.06,0.06,0.125,0.25,> 64,,
Fc1ccc(C2(Cn3cncn3)COC(c3cc4ccc(F)cc4s3)=N2)cc1 (stereo not drawn),0.125,0.5,0.25,2,1,> 64,> 64
c1ccc(-c2nnc(-c3ccc(C4=NC(Cn5cncn5)(c5ccccc5)CO4)cc3)o2)cc1 (stereo not drawn),> 16,> 16,> 64,> 64,> 64,,
Fc1cccc(C2(Cn3cncn3)COC(c3cc4ccc(Cl)cc4s3)=N2)c1 (stereo not drawn),< 0.03,< 0.03,4,0.25,1,> 64,> 64
c1ccc(-c2ccc(C3=NC(Cn4cncn4)(c4ccccc4)CO3)s2)cc1 (stereo not drawn),> 16,> 16,> 64,0.5,4,,
c1ccc(C2(Cn3cncn3)COC(c3nc4ccccc4s3)=N2)cc1 (stereo not drawn),> 16,> 16,> 64,> 64,> 64,,
Fc1cccc(C2(Cn3cncn3)COC(c3cc4ccc(Br)cc4s3)=N2)c1 (stereo not drawn),< 0.03,< 0.03,< 0.03,0.25,2,> 64,> 64
CC(=O)N1CCN(c2ccc(C3=NC(Cn4cncn4)(c4ccccc4)CO3)cc2)CC1 (stereo not drawn),> 16,> 16,> 64,> 64,> 64,,
c1ccc(C2(Cn3cncn3)COC(c3ccc(-c4ccoc4)cc3)=N2)cc1 (stereo not drawn),< 0.03,0.5,< 0.125,0.25,0.5,,
O=C(Nc1ccc(C2=NC(Cn3cncn3)(c3ccccc3)CO2)cc1)c1ccccc1 (stereo not drawn),> 16,8,> 64,> 64,> 64,,
c1ccc(-c2cc(C3=NC(Cn4cncn4)(c4ccccc4)CO3)no2)cc1 (stereo not drawn),> 16,> 16,> 64,> 64,2,,
c1ccc(C2=NC(Cn3cncn3)(c3ccccc3)CO2)cc1 (stereo not drawn),> 16,> 16,> 64,> 64,> 64,,
c1ccc(C2(Cn3cncn3)COC(c3cc4ccccc4s3)=N2)cc1 (stereo not drawn),0.25,1,2,0.25,1,,
c1ccc(C2(Cn3cncn3)COC(c3ccc4ccccc4c3)=N2)cc1 (stereo not drawn),> 16,> 16,> 64,1,4,,
FC(F)(F)c1ccc2sc(C3=NC(Cn4cncn4)(c4ccccc4)CO3)cc2c1 (stereo not drawn),0.5,> 16,> 16,> 64,> 64,,
CCC(C)n1ncn(-c2ccc(N3CCN(c4ccc(OCC5COC(Cn6cncn6)(c6ccc(Cl)cc6Cl)O5)cc4)CC3)cc2)c1=O (stereo not drawn) [ITRACONAZOLE],< 0.03,< 0.03,< 0.03,< 0.125,< 0.125,,
